What was measured:
[1] = Leakage of dye from ETEOS-GPTMS matrix into surrounding PBS (physical stability); format: physicochemical; conditions: for Leaking: fluorescence Intensity (a.u.): PBS pH 7.0 surrounding coated glass slide
Procedure: The photostability was followed by constant illumination of the sensor spot with wavelength selected light from a xenon lamp. The physical stability was tested by immersing the sensor spot in low or high pH aqueous solution, and monitoring the fluorescence from the solution.
Table 2. Leaking of 5(6)-carboxyfluorescein (CF), DMQA-2, DAOTA-1, and 6-stearamido-fluorescein (AF18) from the ETEOS-GPTMS matrix given as fluorescence intensity measured from a PBS solution at pH 7 surrounding a glass slide coated with ETEOS-GPTMS-dye matrix using maximum sized slit widths at the emission and excitation sites of the spectrometer.
All the leakage data is compiled in table 2.

[2] = pH titration of sensor spots (pKa of the sensor); format: physicochemical; conditions: dye in ETEOS-GPTMS matrix, Table 2
Procedure: To perform titrations rapidly a set-up employing an epi-fluorescence microscopy equipped with a halogen light source and an Ocean Optics spectrometer for detection. The sensor spot was attached to a homemade holder, which kept the spot in place in a large chamber filled with water, where pH was externally monitored with a pH meter. Alternatively the sensor spot was affixed on the wall of a cuvette and the titration was performed in a Perkin Elmer LS50B, controlling the pH between measurements.
The performance of the sensors is shown as titration curves in FIG. 4. It is clear that a pH-dependent sensor action is achieved for these two sensor systems.

Leakage from ETEOS-GPTMS matrix (in words) ([1]; PBS pH 7.0)	Leaking: fluorescence Intensity (a.u.) ([1]; leaking period 2 h, half the slit widths used for DMQA-2 and DAOTA-1)	pKa [2]	Leaking: fluorescence Intensity (a.u.) ([1]; leaking period 4 d)	Compound
extensive leakage	>>800 a.u.	6.5		5(6)-carboxyfluorescein [CF]
		6.5	100	CCCCCCCCCCCCCCCCCC(=O)Nc1ccc2c(c1)C1(OC2=O)c2ccc(O)cc2Oc2cc(O)ccc21 [AFC18, 6-stearamido-fluorescein]
